What was measured:
platelets = test: Activation of apoptotic processes in platelets; type: cell-based, dog and human
Bcl-2 = test: Binding to Bcl-2 protein
Experimental: Binding affinity of compounds to Bcl-2 protein is indicia of their inhibition of the activity of this protein. To determine the binding affinity of compounds to Bcl-2, representative examples were diluted in DMSO to concentrations between […] and added to each well of a 96-well microtiter plate. A mixture comprising 125 µL per well of assay buffer (20 mM phosphate buffer (pH 7.4), 1 mM EDTA, 50 mM NaCl, 0.05% PF-68), 10 nM of Bcl-2 protein (prepared according to the procedure described in PNAS 2001, 98, 3012-3017), 1 nM fluorescein-labeled BAX peptide (prepared in-house) and the DMSO solution of the representative example was shaken for 2 minutes and placed in a LJL Analyst (LJL Bio Systems, CA. Polarization was measured at room temperature using a continuous Fluorescein lamp (excitation 485 nm, emission 530 nm). Percentage of inhibition was determined by (1-((mP value of well-negative control)/range))×100%.

Bcl-XL = target: T1, Bcl-XL (Homo sapiens, UniProt Q07817); test: Binding to Bcl-XL protein
T1 construct: made in house
T1 sequence (Q07817 whole entry): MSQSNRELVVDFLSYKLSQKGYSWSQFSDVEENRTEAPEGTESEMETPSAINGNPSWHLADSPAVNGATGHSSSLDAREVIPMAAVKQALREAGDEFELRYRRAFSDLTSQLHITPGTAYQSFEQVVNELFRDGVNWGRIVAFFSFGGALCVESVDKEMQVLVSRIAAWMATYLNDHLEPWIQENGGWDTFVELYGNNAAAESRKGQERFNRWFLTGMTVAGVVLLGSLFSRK
Experimental: Binding affinity of compounds to Bcl-XL protein is indicia of their inhibition of the activity of this protein. To determine the binding affinity of compounds to Bcl-XL protein, representative examples were diluted in DMSO to concentrations between 100 μM and 1 μM and added to each well of a 96-well microtiter plate. A mixture comprising 125 μL per well of assay buffer (20 mM phosphate buffer (pH 7.4), 1 mM EDTA, 50 mM NaCl, 0.05% PF-68), 6 nM of Bcl-XL protein (prepared as described in Science 1997, 275, 983-986), 1 nM fluorescein-labeled BAD peptide (prepared in-house) and the DMSO solution of the compound was shaken for 2 minutes and placed in a LJL Analyst (LJL Bio Systems, CA). A negative control (DMSO, 15 nM BAD peptide, assay buffer) and a positive control (DMSO, 1 nM BAD peptide, 6 nM Bcl-XL, assay buffer) were used to determine the range of the assay. Polarization was measured at room temperature using a continuous Fluorescein lamp (excitation 485 nm, emission 530 nm). Percentage of inhibition was determined by (1-((mP value of well-negative control)/range))×100%.

dog platelets = test: Viability of dog platelets; type: cell-based
circulating platelets [1] = test: Circulating platelet count in dogs on multiple oral daily dosing; type: in vivo; details: male beagle dogs, once daily oral gavage, 2 mg/kg days 2-7, 6 mg/kg days 8-15 (FIG. 5)
Experimental: (§1) The effect of Bcl-2 protein inhibitors on circulating platelets can be determined by administration of test compounds, preferably orally or intravenously, to an animal and analyzing a blood sample and determining the number of platelets by techniques well-known in the art. Preferably, blood samples are obtained from about 2 hours to about 48 hours after compound administration.
Male beagle dogs (n=3/group; 8-12 kg) were treated once daily with N-(4-(4-((2-(4-chlorophenyl)-5,5-dimethyl-1-cyclohex-1-en-1-yl)methyl)piperazin-1-yl)benzoyl)-4-(((1R)-3-(morpholin-4-yl)-1-((phenylsulfanyl)methyl)propyl)amino)-3-((trifluoromethyl)sulfonyl)benzenesulfonamide in 10:90 DMSO/PEG 400 (by volume) by oral gavage at a dose of 2 mg/kg on days 2-7 and at a dose of 6 mg/kg on days 8-15 of the study. Blood samples were collected at baseline and 6 hours post dosing on days 2-5, 8-12 and day 15 from the jugular vein, treated with EDTA and the whole blood analyzed for platelet counts on a Cell-Dyn 3700 (Abbott Laboratories). Percent starting platelet counts (PC) were calculated using the following equation. [1−(PCt=0−PCt=6)/PCt=0]×100%.

Bcl-w = target: T2, Bcl-w (Homo sapiens, UniProt Q92843); test: Binding to Bcl-w
T2 sequence (Q92843 1-193): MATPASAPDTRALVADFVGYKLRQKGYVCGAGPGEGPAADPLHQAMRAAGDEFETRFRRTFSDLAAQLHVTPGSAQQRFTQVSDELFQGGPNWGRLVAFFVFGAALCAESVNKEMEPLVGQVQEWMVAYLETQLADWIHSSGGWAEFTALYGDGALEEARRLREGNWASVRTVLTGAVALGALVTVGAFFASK

human platelets = test: Viability of human platelets; type: cell-based
isolated platelets = test: Aggregation of isolated platelets; type: cell-based
circulating platelets [2] = test: Circulating platelet count in dogs after a single oral dose; type: in vivo; details: male beagle dogs, one 5 mg/kg oral dose (FIG. 1, FIG. 2)
Experimental: as §1
Male beagle dogs (n=3/group; 8-12 kg) were treated with a single dose of 5 mg/kg N-(4-(4-((2-(4-chlorophenyl)-4,4-dimethylcyclohex-1-en-1-yl)methyl)piperazin-1-yl)benzoyl)-4-(((1R)-3-(morpholin-4-yl)-1-((phenylsulfanyl)methyl)propyl)amino)-3-((trifluoromethyl)sulfonyl)benzenesulfonamide in 10:30:60 ethanol/phosal 50 PG/PEG 400 (by weight) by oral gavage. Blood samples were collected at baseline and at the indicated time points from the jugular vein, treated with EDTA and the whole blood analyzed for platelet counts on a Cell-Dyn 3700 (Abbott Laboratories).
Male beagle dogs (n=3/group; 8-12 kg) were treated with a single dose of 5 mg/kg 3-((chloro(difluoro)methyl)sulfonyl)-N-(4-(4-((2-(4-chlorophenyl)-4,4-dimethylcyclohex-1-en-1-yl)methyl)piperazin-1-yl)benzoyl)-4-(((1R)-3-(morpholin-4-yl)-1-((phenylsulfanyl)methyl)propyl)amino)benzenesulfonamide in 10:90 DMSO/PEG 400 (by volume) by oral gavage. […]

SMILES	PS (phosphotidyl serine) externalization (platelets)	caspase 3 activation (platelets)	cytochrome c release (platelets)	binding to Bcl-2 (Bcl-2)	binding to Bcl-XL (Bcl-XL)	viability of platelets (dog platelets)	circulating platelet count, multiple oral dosing (circulating platelets [1])	binding to Bcl-w (Bcl-w)	viability of platelets (human platelets)	aggregation of isolated platelets (isolated platelets)	circulating platelet count (circulating platelets [2])
CC1(C)CCC(c2ccc(Cl)cc2)=C(CN2CCN(c3ccc(C(=O)NS(=O)(=O)c4ccc(N[C@H](CCN5CCOCC5)CSc5ccccc5)c(S(=O)(=O)C(F)(F)F)c4)cc3)CC2)C1 [EXAMPLE 2, N-(4-(4-((2-(4-chlorophenyl)-5,5-dimethyl-1-cyclohex-1-en-1-yl)methyl)piperazin-1-yl)benzoyl)-4-(((1R)-3-(morpholin-4-yl)-1-((phenylsulfanyl)methyl)propyl)amino)-3-((trifluoromethyl)sulfonyl)benzenesulfonamide]	activated	activated	activated	capable of binding	capable of binding	reduced	proportionate effect	capable of binding	reduced	did not induce	–
CC1(C)CCC(CN2CCN(c3ccc(C(=O)NS(=O)(=O)c4ccc(N[C@H](CCN5CCOCC5)CSc5ccccc5)c(S(=O)(=O)C(F)(F)F)c4)cc3)CC2)=C(c2ccc(Cl)cc2)C1 [EXAMPLE 6, N-(4-(4-((2-(4-chlorophenyl)-4,4-dimethylcyclohex-1-en-1-yl)methyl)piperazin-1-yl)benzoyl)-4-(((1R)-3-(morpholin-4-yl)-1-((phenylsulfanyl)methyl)propyl)amino)-3-((trifluoromethyl)sulfonyl)benzenesulfonamide]	–	–	–	–	–	–	–	–	–	–	rapid reduction in circulating platelet count
CN(C)CC[C@H](CSc1ccccc1)Nc1ccc(S(=O)(=O)NC(=O)c2ccc(N3CCN(Cc4ccccc4-c4ccc(Cl)cc4)CC3)cc2)cc1[N+](=O)[O-] [EXAMPLE 7, N-(4-(4-((4′-chloro(1,1′-biphenyl)-2-yl)methyl)piperazin-1-yl)benzoyl)-4-(((1R)-3-(dimethylamino)-1-((phenylsulfanyl)methyl)propyl)amino)-3-nitrobenzenesulfonamide]	–	–	–	capable of binding	capable of binding	–	–	capable of binding	–	–	–

From patent US7842681B2, “Treatment of myeoproliferative diseases” (Abbott Laboratories, priority 2006, dated 2010)
